The record followed here is US8664277B2, “Compounds and methods for PKCθ inhibition” (Complegen Partners, LLC, priority 2008, dated 2014).

Molecules are shown by their SMILES. Read-outs that look alike come from different tables or passages of the source.

One experiment concerns the target T1, PKC epsilon (Homo sapiens, UniProt Q02156).
T1 construct: expressed in transfected cells; host or cells: yeast (XenoGene strain)
T1 sequence (Q02156 1-737): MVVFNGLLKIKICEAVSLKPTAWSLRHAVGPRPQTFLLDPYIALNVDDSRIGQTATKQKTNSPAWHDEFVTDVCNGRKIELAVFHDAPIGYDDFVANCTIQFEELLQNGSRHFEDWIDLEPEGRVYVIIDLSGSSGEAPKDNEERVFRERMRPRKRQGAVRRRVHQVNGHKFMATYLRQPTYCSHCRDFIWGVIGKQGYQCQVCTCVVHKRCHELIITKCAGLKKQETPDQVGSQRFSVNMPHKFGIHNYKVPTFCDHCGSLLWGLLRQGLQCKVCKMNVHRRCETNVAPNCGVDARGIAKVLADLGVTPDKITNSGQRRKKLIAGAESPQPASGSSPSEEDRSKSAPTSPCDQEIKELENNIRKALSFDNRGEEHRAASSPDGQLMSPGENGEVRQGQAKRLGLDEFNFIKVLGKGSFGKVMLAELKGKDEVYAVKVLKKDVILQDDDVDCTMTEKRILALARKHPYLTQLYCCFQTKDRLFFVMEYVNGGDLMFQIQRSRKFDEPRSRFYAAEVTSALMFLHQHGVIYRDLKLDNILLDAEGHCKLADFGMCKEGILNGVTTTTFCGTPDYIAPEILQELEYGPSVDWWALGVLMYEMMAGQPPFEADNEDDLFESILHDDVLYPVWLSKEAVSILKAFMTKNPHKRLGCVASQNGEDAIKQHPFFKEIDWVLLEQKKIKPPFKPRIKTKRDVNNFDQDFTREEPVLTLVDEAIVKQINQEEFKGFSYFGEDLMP
Kind of experiment: XenoGene counter-screen, PKC epsilon. Format: cell-based. The settings on record: inverse of (PKC-theta IC50)/(PKC-X IC50). The method, then:
To identify compounds as being selective PKC theta inhibitors the IC50 values are determined against XenoGene™ strains containing other XenoGenes™, especially certain other PKC genes (see Example 10).
Human PKC theta gene (cDNA) was used to generate a XenoGene™ system as previously described (U.S. Pat. Nos. 6,998,261, 6,232,074), which was used to screen compounds in a chemical compound library. XenoGene™ systems used as counter-screens were constructed similarly using the gene for the appropriate counter-screen target. In particular, human genes (cDNA) encoding PKC delta, PKC eta and PKC epsilon were used to generate XenoGene™ systems.
(Counterscreens check selectivity or assay interference.)

The subject of the next experiment is Mouse splenic T cells. In words: Inhibition of naive T cell activation (anti-CD3/anti-CD28), 3H-TdR incorporation. The settings on record: three days, control without compound 31571. Format: cell-based. As to the method:
Inhibition of naïve T cell activation by compound 471. Mouse splenic T cells were isolated from unimmunized mice by magnetic negative selection (Miltenyi®, Untouched T Cell Isolation Kit) or FACS using anti-CD3-PE-Cy7. Isolated T cells were incubated in microtiter wells coated with anti-CD3 monoclonal antibody and soluble anti-CD28 monoclonal antibody, 10^5 cells/100 μl in 10% FBS-RPMI as above, for three days. Proliferation was measured by ^3H-TdR incorporation.

Another experiment concerns T cell lymphomas. In words: Inhibition of T cell lymphomas, live cells counted by flow cytometry. Format: cell-based, mouse. The settings on record: for EC50: Mus musculus, T-cell, 96 h, 4 days growth. The text has this: The compounds of the present invention can also be screened for the ability to inhibit T cell lymphomas. Assays for inhibiting T cell lymphomas are known to one of skill in the art. In some embodiments, the assay involves mice generated from the nucleus of a mature T cell with a “fixed” rearranged T cell receptor. These T cells spontaneously generate T cell lymphomas which resemble human T cell lymphomas. T cell lymphomas isolated from the mice can then be treated with compounds of the present invention. After sufficient time to allow for cell growth, live cells are counted by flow cytometry (Serwold et al. (2007) J. Immunol. 179; 928). One of skill in the art will appreciate that other assays are useful in the present invention.
Mice generated from the nucleus of a mature T cell (see Hochedlinger K, Jaenisch R. (2002) Nature 415; 1035) with a “fixed” rearranged T cell receptor spontaneously generate T cell lymphomas which resemble human T cell lymphomas. Several T cell lymphomas (1-4) isolated from these mice were treated with compound 471. All T cell lymphomas were inhibited by compound 471. A B-cell hybridoma served as a non-T cell control and was not affected by the compound. Cells were seeded into 96-well plates (5,000 cells/well) in the presence of compound 471 at concentrations ranging from 0.1 to 5 uM. After 4 days growth (37° C., 5% CO2), live cells were counted by flow cytometry (Serwold et al. (2007) J. Immunol. 179; 928)
Background: A flow cytometer gives signals particle by particle.

For a further experiment, the target named is T2, Human PKC theta (Homo sapiens, UniProt Q04759).
T2 construct: expressed in transfected cells; host or cells: yeast (XenoGene strain)
T2 sequence (Q04759 whole entry): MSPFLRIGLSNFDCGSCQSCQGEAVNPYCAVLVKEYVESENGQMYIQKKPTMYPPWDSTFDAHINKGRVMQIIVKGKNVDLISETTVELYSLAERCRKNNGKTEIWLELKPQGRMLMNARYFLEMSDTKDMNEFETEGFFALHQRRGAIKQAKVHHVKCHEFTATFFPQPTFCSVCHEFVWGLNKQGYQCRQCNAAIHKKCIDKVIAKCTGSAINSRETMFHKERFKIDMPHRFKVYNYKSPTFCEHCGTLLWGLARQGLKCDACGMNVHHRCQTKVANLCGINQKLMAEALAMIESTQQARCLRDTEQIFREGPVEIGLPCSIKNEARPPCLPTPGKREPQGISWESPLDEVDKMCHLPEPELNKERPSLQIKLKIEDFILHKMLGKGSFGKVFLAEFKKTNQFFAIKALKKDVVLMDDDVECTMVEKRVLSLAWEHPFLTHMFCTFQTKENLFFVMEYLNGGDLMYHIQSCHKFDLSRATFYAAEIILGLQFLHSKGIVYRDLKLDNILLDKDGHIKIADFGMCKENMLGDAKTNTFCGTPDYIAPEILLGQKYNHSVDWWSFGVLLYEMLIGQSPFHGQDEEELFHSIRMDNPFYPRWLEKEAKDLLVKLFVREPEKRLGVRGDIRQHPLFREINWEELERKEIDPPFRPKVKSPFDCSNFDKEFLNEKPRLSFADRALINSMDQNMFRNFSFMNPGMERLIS
In words: XenoGene yeast growth inhibition, yeast containing human PKC theta gene. Format: cell-based. From the text:
Using the XenoGene™ system described within, compounds inhibiting PKCθ are identified. The XenoGene™ system is a technology developed and patented by CompleGen wherein genes (“XenoGenes”™) from a target organism (e.g. humans) are used to functionally replace essential genes of a simple organism (yeast). These modified yeast are used to select compounds that act specifically on the protein encoded by the target gene and eliminate compounds that are not specific. […]

For `CC(C)(C)c1ccc(Oc2ccc(N)cc2)cc1` [Compound 471], the “Selectivity for PKC-theta v. PKC-epsilon” value on PKC epsilon is given as 1.1. Also, the 3H-TdR cpm is listed as 21928 cpm in the experiment with Mouse splenic T cells (0.5 uM compound) and 880 cpm in the experiment on Mouse splenic T cells (1.0 uM compound). Also, the EC50 (as a rule, the concentration needed to bring the measured effect to its halfway point) is 700 nM in the experiment on T cell lymphomas (Lymphoma 1), 200 nM in the experiment with T cell lymphomas (Lymphoma 2), under 100 nM in the experiment with T cell lymphomas (Lymphoma 4) and 700 nM in the experiment with T cell lymphomas (Lymphoma 5). Moreover, the “Inhibition of T cell lymphomas” value with T cell lymphomas (all T cell lymphomas, 0.1 to 5 uM) is “inhibited”. Besides, the 50% inhibitory concentration (IC50) (commonly the midpoint of a concentration-inhibition curve) was under 1000 nM on Human PKC theta (50% inhibition of growth of yeast containing the target gene, read-out: IC50) and 140 nM at Human PKC theta (XenoGene system, read-out: PKC-theta IC50).
